Source: patent US9157054B2, “Device and method for preparing microparticles” (The University of Queensland, priority 2007, dated 2015)
Converted amounts (≈) assume the structure as drawn. “And” between values parts separate entries of the source, which are not always exact repeats. Identical values can stand only once.

Experiments:
[1] = Particle size by optical microscopy; format: physicochemical
Description: Alginate gel microparticles were examined using an optical microscope (Zeiss, AXIOSCOP 40) with […] attachment (AXIOCam MRm). The morphology and particle size of GS-loaded alginate microparticles were characterized according to the methods described above. The morphology of insulin-loaded alginate gel microparticles and the particle size were characterized according to the methods described above. The morphology and particle size was characterized according to the methods described above.

[2] = British Pharmacopoeia 2008; cited from earlier work
physchem = settings: aqueous buffer

SMILES: CC(C)Cc1ccc(C(C)C(=O)O)cc1 (centres unmarked) [ibuprofen]
- powder particle size ([1]; 'as received' powder, before size reduction): 30-100 micron and 30-40 micron
- crystal / powder particle size ([1]; after precipitation from acetone into alginate solution, optical microscope): 10-15 microns
- solubility in acetone, methanol and dichloromethane (DCM) [2]: freely soluble
- solubility in water [2]: practically insoluble
- solubility (physchem): 300 µg/mL (≈ 1450 µM)
